Source: patent publication US20240173320A1, “METHODS OF USING EHMT2 INHIBITORS IN IMMUNOTHERAPIES” (Epizyme, Inc., priority 2017, published 2024)
“Also recorded” adds a separate entry of the source.

Tests used:
H3K9me2 [1] = experiment: Methyl mark (H3K9me2) by flow cytometry under Treg polarizing conditions; format: cell-based, human; conditions: naive CD4 T cells from healthy donor PBMCs, six days, flow cytometry (Example 3, FIGS. 3, 4A-4B)
Procedure: (§1) Naive CD4 T cells were isolated from healthy donor PBMCs using magnetic bead separation and were incubated for six days with cytokine cocktail to promote polarization to T regulatory cells, as described in [0601]. Cells were simultaneously treated with various concentrations of G9a inhibitors, with compound replenishment occurring at either day three or day four. Polarization to T regulatory cells was assessed by flow cytometry using Foxp3 and CD25. Methyl mark (H3K9me2) was also assessed by flow cytometry.

[2] = tested on: naive CD4 T cells isolated from human PBMCs; experiment: T regulatory (Treg) cell polarization of naive CD4 T cells, flow cytometry for CD25 and Foxp3; format: cell-based; conditions: for Treg polarization: naive CD4 T cells from healthy donor PBMCs, six days, Foxp3 and CD25 by flow cytometry (Example 3, FIGS. 3, 4A-4B)
Procedure: (§2) To evaluate the effects of Compounds on T regulatory (Treg) and Th17 cell polarization, naive CD4 T cells were isolated from human peripheral blood mononuclear cells (PBMCs) using magnetic bead separation and cultured with or without compound in the presence of Treg or Th17 polarizing cytokines. For Treg polarization, naive cells were cultured for five days with anti-CD3, anti-CD28, TL-2 and TGFβ. After five days, the cells were then evaluated for CD25 and Foxp3 expression by flow cytometry. For Th17 polarization, naive cells were cultured for 10-11 days with anti-CD3, anti-CD28, […], IL-6, IL-23, TGFβ, anti-IFNγ antibody and anti-IL-4 antibody. After 10-11 days cells were stimulated and then evaluated for IL-17 and IFNγ by flow cytometry.
(§3) To evaluate the effects of Compound 571 on Treg cell polarization, naive cells were isolated from human peripheral blood mononuclear cells (PBMCs), stimulated with coated CD3 antibody and soluble CD28 antibody, and cultured with or without compound in the presence of Treg polarizing cytokines for five days, as described in [0601]. Compound was replenished at either day three or day four.
as §1

[3] = tested on: naive CD4 T cells isolated from human PBMCs; experiment: Th17 cell polarization of naive CD4 T cells, flow cytometry for IL-17 and IFNγ; format: cell-based; conditions: for percentage of polarized Th17 cells: naive cells from human PBMCs, Th17 polarizing cytokines, 11 days, IL-17 and IFNγ by flow cytometry (Example 2, FIGS. 1B, 2)
Procedure: as §2
as §3, with “of Compounds 205 and” for “of Compound”, “on Th17” for “on Treg”, “of Th17” for “of Treg”, “for 11 days” for “for five days,”, “four. After 11 days of treatment, cells were stimulated with PMA, ionomycin, brefeldin A and monensin, and then evaluated for IL-17 and IFNγ by flow cytometry.” for “four.”
as §1, with “incubated” for “incubated for six days”, “Th17” for “T regulatory”, “at” for “at either”, “or” for “or day”, “IL-17A” for “Foxp3”, “IFNy.” for “CD25.”

H3K9me2 [4] = experiment: Methyl mark (H3K9me2) by flow cytometry under Th17 polarizing conditions; format: cell-based, human; conditions: naive CD4 T cells from healthy donor PBMCs, flow cytometry (Example 4, FIGS. 5, 6A-6B)
Procedure: as §1, with “incubated” for “incubated for six days”, “Th17” for “T regulatory”, “at” for “at either”, “or” for “or day”, “IL-17A” for “Foxp3”, “IFNy.” for “CD25.”

Compound | H3K9me2 (methyl mark) under Treg polarization (H3K9me2 [1]) | Treg polarization [2] | percentage of polarized Th17 cells [3] | H3K9me2 (methyl mark) under Th17 polarization (H3K9me2 [4]) | polarized Treg cells ([2]; naive cells from human PBMCs, Treg polarizing cytokines, five days (Example 2, FIG. 1A)) | Th17 polarization ([3]; naive CD4 T cells from healthy donor PBMCs, IL-17A and IFNγ by flow cytometry (Example 4, FIG. 5))
CNc1cc(C)nc(Nc2ccc(OC)c(OCCCN3CCCC3)c2)n1 [Compound 205] | decreased | increased | dose-dependent increase | decreased |  | 
CCN1CC[C@@H](COc2cc(Nc3nc(C)cc(NC)n3)ccc2OC)C1 [Compound 571] |  |  | dose-dependent increase |  | anin polarized Treg cells | 
CNC1=Nc2cc(C#CCN3CCCCC3)c(OC)cc2C12CCC2 [Compound A75] | decreased | increased |  | decreased |  | 
CNCc1cnn(-c2cc(Nc3nc(C)cc(NC)n3)ccc2OC)c1 [Compound D6] | dose-dependent decrease; also recorded: decreased | dose-dependent increase; also recorded: increased |  | dose-dependent decrease; also recorded: decreased |  | dose-dependent increase
